SMILES strings stand for the structures. ≈ marks a conversion by molar mass, not a printed value.

This experiment deals with S. aureus ATCC25923. The experiment in a line: S. aureus MIC80 determination, broth microdilution (CLSI) in CAMHB. To be noted: Staphylococcus aureus, ATCC25923; Table 1; S. aureus ATCC 25923; growth inhibition ≥80% vs vehicle, 16-24 h; read-out: ATCC 25923 MIC80. It counts as cell-based. The protocol: S. Aureus MIC80 determinations in S. aureus ATCC25923 or in multidrug-resistant strains AR215, AR217 and AR255. MIC80's were determined by the broth microdilution method recommended by the Clinical and Laboratory Standards Institute (CLSI) in Cation-adjusted Mueller-Hinton broth (CAMHB). (Cao et al., 2018). In the preliminary screening, three compound concentrations were used: 5.8, 20.4, and 71.4 μM; for quantitative MIC80 measurements, a 1.5-fold dilution series of the compounds was prepared in CAMHB. Overnight bacterial culture was added to the diluted compounds in a 96-well plate after adjusting the bacterial concentration to achieve a 5×10^5 CFU/mL final concentration. After 16-24 h incubation at 35±2° C., the plates were read at 600 nm in a microplate reader. The MIC80 was defined as the concentration of an antibacterial agent that inhibited bacteria growth ≥80% compared to vehicle-treated control cultures. All values were determined at least twice independently, and the average number is reported.
A general note: Dilution methods test growth across graded concentrations, often in twofold steps.
Regarding `Cc1cc(Cl)cc2sc(NCCCn3ccnc3)nc12` [Example 1, N-(3-(1H-imidazol-1-yl)propyl)-6-chloro-4-methylbenzo[d]thiazol-2-amine], the MIC80 (usually an inhibitory concentration at the 80% level, which refers to growth in some studies and to a panel of isolates in others) came out at 19.8 µM (≈ 6.08 µg/mL).

For `Cc1cc(Cl)cc2sc(N(CCCn3ccnc3)C(=O)c3ccco3)nc12` [Example 2, N-(3-(1H-imidazol-1-yl)propyl)-N-(6-chloro-4-methylbenzo[d]thiazol-2-yl)furan-2-carboxamide], the MIC80 was found to be 1.7 µM (≈ 0.682 µg/mL). The figure for `Cc1cc(Cl)cc2sc(N(CCCn3ccnc3)C(=O)c3ccccc3)nc12` [Example 3, N-(3-(1H-imidazol-1-yl)propyl)-N-(6-chloro-4-methylbenzo[d]thiazol-2-yl)benzamide] is 3.9 µM (≈ 1.6 µg/mL); for `Cc1cc(Cl)cc2sc(N(CCCn3ccnc3)C(=O)c3ccccn3)nc12` [Example 5, N-(3-(1H-imidazol-1-yl)propyl)-N-(6-chloro-4-methylbenzo[d]thiazol-2-yl)picolinamide] it is 8.8 µM (≈ 3.62 µg/mL).

Take `Cc1cc(Cl)cc2sc(N(CCCn3ccnc3)C(=O)/C=C/c3ccco3)nc12` [Example 6, (E)-N-(3-(1H-imidazol-1-yl)propyl)-N-(6-chloro-4-methylbenzo[d]thiazol-2-yl)-3-(furan-2-yl)acrylamide]: the MIC80 was found to be 2.6 µM (≈ 1.11 µg/mL). The figure for `Cc1cc(Cl)cc2sc(N(CCCn3ccnc3)C(=O)c3ccoc3)nc12` [Example 7, N-(3-(1H-imidazol-1-yl)propyl)-N-(6-chloro-4-methylbenzo[d]thiazol-2-yl)furan-3-carboxamide] is 2.6 µM (≈ 1.04 µg/mL); for `Cc1cc(Cl)cc2sc(N(CCCn3ccnc3)C(=O)C3CCCC3)nc12` [Example 8, N-(3-(1H-imidazol-1-yl)propyl)-N-(6-chloro-4-methylbenzo[d]thiazol-2-yl)cyclopentanecarboxamide] it is 3.9 µM (≈ 1.57 µg/mL). The figure for `Cc1ccc(C(=O)N(CCCn2ccnc2)c2nc3c(C)cc(Cl)cc3s2)s1` [Example 9, N-(3-(1H-imidazol-1-yl)propyl)-N-(6-chloro-4-methylbenzo[d]thiazol-2-yl)-5-methylthiophene-2-carboxamide] is 2.6 µM (≈ 1.12 µg/mL). In the case of `Cc1cc(Cl)cc2sc(N(CCCn3ccnc3)C(=O)C3CC3)nc12` [Example 10, N-(3-(1H-imidazol-1-yl)propyl)-N-(6-chloro-4-methylbenzo[d]thiazol-2-yl)cyclopropanecarboxamide] it was 1.7 µM (≈ 0.637 µg/mL). In the case of `Cc1cc(Cl)cc2sc(N(CCCn3ccnc3)C(=O)C(C)C)nc12` [Example 11, N-(3-(1H-imidazol-1-yl)propyl)-N-(6-chloro-4-methylbenzo[d]thiazol-2-yl)isobutyramide], the MIC80 came to 2.7 µM (≈ 1.02 µg/mL). In the case of `Cc1cc(Cl)cc2sc(N(CCCn3ccnc3)C(=O)c3ccc(C(=O)O)cc3)nc12` [Example 12, 4-((3-(1H-imidazol-1-yl)propyl)(6-chloro-4-methylbenzo[d]thiazol-2-yl)carbamoyl)benzoic acid] it was over 100 µM. Consider `Cc1cc(Cl)cc2sc(N(CCCn3ccnc3)C(=O)c3cc4ccccc4o3)nc12` [Example 13, N-(3-(1H-imidazol-1-yl)propyl)-N-(6-chloro-4-methylbenzo[d]thiazol-2-yl)benzofuran-2-carboxamide], for which the MIC80 worked out at 8.8 µM (≈ 3.97 µg/mL).

Consider `Cc1cc(Cl)cc2sc(N(CCCn3ccnc3)C(=O)C3CCCO3)nc12` (stereo not shown) [Example 14, N-(3-(1H-imidazol-1-yl)propyl)-N-(6-chloro-4-methylbenzo[d]thiazol-2-yl)tetrahydrofuran-2-carboxamide], for which the MIC80 came to 29.6 µM (≈ 12 µg/mL).

Consider `Cc1cc(C(=O)N(CCCn2ccnc2)c2nc3c(C)cc(Cl)cc3s2)oc1C` [Example 16, N-(3-(1H-imidazol-1-yl)propyl)-N-(6-chloro-4-methylbenzo[d]thiazol-2-yl)-4,5-dimethylfuran-2-carboxamide], for which the MIC80 is 3.9 µM (≈ 1.67 µg/mL).

On to `Cc1cc(Cl)cc2sc(N(CCCn3ccnc3)C(=O)C3CCC3)nc12` [Example 17, N-(3-(1H-imidazol-1-yl)propyl)-N-(6-chloro-4-methylbenzo[d]thiazol-2-yl)cyclobutanecarboxamide], for which the MIC80 stood at 2.6 µM (≈ 1.01 µg/mL). `Cc1cc(Cl)cc2sc(N(CCCn3ccnc3)C(=O)C3(C)CC3)nc12` [Example 18, N-(3-(1H-imidazol-1-yl)propyl)-N-(6-chloro-4-methylbenzo[d]thiazol-2-yl)-1-methylcyclopropanecarboxamide]: the MIC80 is 5.9 µM (≈ 2.29 µg/mL). In the case of `Cc1cc(Cl)cc2sc(N(CCCn3ccnc3)C(=O)c3ccc[nH]3)nc12` [Example 19, N-(3-(1H-imidazol-1-yl)propyl)-N-(6-chloro-4-methylbenzo[d]thiazol-2-yl)-1H-pyrrole-2-carboxamide] it was 1.3 µM (≈ 0.52 µg/mL). Take `CSCc1ccc(C(=O)N(CCCn2ccnc2)c2nc3c(C)cc(Cl)cc3s2)o1` [Example 20, N-(3-(1H-imidazol-1-yl)propyl)-N-(6-chloro-4-methylbenzo[d]thiazol-2-yl)-5-((methylthio)methyl)furan-2-carboxamide]: the MIC80 worked out at 2.9 µM (≈ 1.34 µg/mL). Regarding `Cc1cc(Cl)cc2sc(N(CCCn3ccnc3)C(=O)[C@H](Cc3ccccc3)NC(=O)OC(C)(C)C)nc12` [Example 21, (S)-tert-butyl (1-((3-(1H-imidazol-1-yl)propyl)(6-chloro-4-methylbenzo[d]thiazol-2-yl)amino)-1-oxo-3-phenylpropan-2-yl)carbamate], the MIC80 was 14.8 µM (≈ 8.2 µg/mL). The figure for `Cc1cc(Cl)cc2sc(N(CCCn3ccnc3)S(=O)(=O)c3cccs3)nc12` [Example 22, N-(3-(1H-imidazol-1-yl)propyl)-N-(6-chloro-4-methylbenzo[d]thiazol-2-yl)thiophene-2-sulfonamide] is 3.9 µM (≈ 1.77 µg/mL); for `Cc1cc(Cl)cc2sc(N(CCCn3ccnc3)S(=O)(=O)c3ccccc3)nc12` [Example 23, N-(3-(1H-imidazol-1-yl)propyl)-N-(6-chloro-4-methylbenzo[d]thiazol-2-yl)benzenesulfonamide] it is 3.9 µM (≈ 1.74 µg/mL). In the case of `Cc1cc(Cl)cc2sc(N(CCCn3ccnc3)S(=O)(=O)C3CCCCC3)nc12` [Example 24, N-(3-(1H-imidazol-1-yl)propyl)-N-(6-chloro-4-methylbenzo[d]thiazol-2-yl)cyclohexanesulfonamide] it was 13.2 µM (≈ 5.98 µg/mL); in that of `Cc1cc(Cl)cc2sc(N(CCCn3ccnc3)S(=O)(=O)c3ccco3)nc12` [Example 25, N-(3-(1H-imidazol-1-yl)propyl)-N-(6-chloro-4-methylbenzo[d]thiazol-2-yl)furan-2-sulfonamide], 8.8 µM (≈ 3.85 µg/mL); in that of `Cc1cc(Cl)cc2sc(N(CCCn3ccnc3)Cc3ccccc3)nc12` [Example 26, N-(3-(1H-imidazol-1-yl)propyl)-N-benzyl-6-chloro-4-methylbenzo[d]thiazol-2-amine], 3.9 µM (≈ 1.55 µg/mL). The figure for `Cc1cc(Cl)cc2sc(N(CCCn3ccnc3)CC3CC3)nc12` [Example 27, N-(3-(1H-imidazol-1-yl)propyl)-6-chloro-N-(cyclopropylmethyl)-4-methylbenzo[d]thiazol-2-amine] is 6.6 µM (≈ 2.38 µg/mL); for `Cc1cc(Cl)cc2sc(N(CCCn3ccnc3)CCCn3ccnc3)nc12` [Example 28, N,N-bis(3-(1H-imidazol-1-yl)propyl)-6-chloro-4-methylbenzo[d]thiazol-2-amine] it is 5.9 µM (≈ 2.45 µg/mL).

For the compound `Cc1cc(Cl)cc2sc(N(CCCn3cc[n+](C)c3)C(=O)c3ccco3)nc12` [Example 29, 1-(3-(N-(6-chloro-4-methylbenzo[d]thiazol-2-yl)furan-2-carboxamido)propyl)-3-methyl-1H-imidazol-3-ium], the MIC80 came to 13.2 µM. The figure for `Cc1cc(Cl)cc2sc(N3CCNCC3)nc12` [Example 30, 6-chloro-4-methyl-2-(piperazin-1-yl)-1,3-benzothiazole] is 100 µM (≈ 26.8 µg/mL); for `CC(=O)N1CCN(c2nc3c(C)cc(Cl)cc3s2)CC1` [Example 31, 1-(4-(6-chloro-4-methylbenzo[d]thiazol-2-yl)piperazin-1-yl)ethan-1-one] it is over 100 µM; for `Cc1cc(Cl)cc2sc(N3CCC(O)CC3)nc12` [Example 32, 1-(6-chloro-4-methylbenzo[d]thiazol-2-yl)piperidin-4-ol] it is over 100 µM. In the case of `Cc1cc(Cl)cc2sc(N3CCC(N)CC3)nc12` [Example 33, 1-(6-chloro-4-methyl-1,3-benzothiazol-2-yl)piperidin-4-amine] it was 66.7 µM (≈ 18.8 µg/mL); in that of `Cc1cc(Cl)cc2sc(N3CCC(CN)CC3)nc12` [Example 34], 44.4 µM (≈ 13.1 µg/mL).

`Cc1cc(Cl)cc2sc(N3CCCC(Cn4ccnc4)C3)nc12` (stereo not shown) [Example 35, 6-chloro-2-{3-[(1H-imidazol-1-yl)methyl]piperidin-1-yl}-4-methyl-1,3-benzothiazole]: the MIC80 is 66.7 µM (≈ 23.1 µg/mL). The figure for `Cc1cc(Cl)cc2sc(N(CCCn3ccnc3)C(=O)CN)nc12` [Example 36, 2-amino-N-(6-chloro-4-methyl-1,3-benzothiazol-2-yl)-N-[3-(1H-imidazol-1-yl)propyl]acetamide] is over 100 µM.

Turning to `Cc1cc(Cl)cc2sc(N(CC3CCNCC3)C(=O)C3CCC3)nc12` [Example 37, N-(6-chloro-4-methylbenzo[d]thiazol-2-yl)-N-(piperidin-4-ylmethyl)cyclobutanecarboxamide], the MIC80 came out at 19.8 µM (≈ 7.48 µg/mL). The figure for `Cc1cc(Cl)cc2sc(N(CC3CCN(C)CC3)C(=O)C3CCC3)nc12` [Example 38, N-(6-chloro-4-methyl-1,3-benzothiazol-2-yl)-N-[(1-methylpiperidin-4-yl)methyl]cyclobutanecarboxamide] is over 100 µM; for `Cc1cc(Cl)cc2sc(N(CC3CCNCC3)C(=O)C3CC3)nc12` [Example 39] it is 19.8 µM (≈ 7.21 µg/mL).
